The source of these data is US7098013B2, “Polypeptide having α-isomaltosyl-transferase activity” (Kabushiki Kaisha Hayashibara Seibutsu Kagaku Kenkyujo, priority 2000, dated 2006).

The test system of test [1] is α-isomaltosyl-transferring enzyme. Briefly: Action of the purified C11 enzyme on saccharide substrates (saccharide composition by HPLC). The test is classed as biochemical, Bacillus globisporus C11. To be noted: for yield of cyclotetrasaccharide in dry basis from the substrate: summary of Table 3. On the procedure: An aqueous solution containing 10 mM of glucose, 6-O-α-glucosylglucose (isomaltose), 6^2-O-α-glucosylmaltose (panose), 6^3-O-α-glucosylmaltotriose (isomaltosylmaltose), 6^4-O-α-glucosylmaltotetraose, or 6^5-O-α-glucosylmaltopentaose was prepared as substrate solution. To each of the above substrate solution was added two units/mM-substrate of the purified α-isomaltosyl-transferring enzyme specimen obtained in Experiment 1-2 and incubated at 30° C. and at pH 6.0 for 12 hours. After deionizing by conventional method, the resulting reaction solutions were measured for saccharide composition on HPLC using “MCI GEL CK04SS”, a column commercialized by Mitsubishi Chemical Industries, Ltd., Tokyo, Japan, at a column temperature of 80° C. and a flow rate of 0.4 ml/min of water, and using a detector “RI-8012”, a differential refractometer commercialized by Tosho Corporation, Tokyo, Japan.

Test [2] has the same test system. The test can be described thus: Action of the purified N75 enzyme on saccharide substrates (saccharide composition by HPLC). The test is classed as biochemical, Bacillus globisporus N75. To be noted: for yield of cyclotetrasaccharide in dry basis from the substrate: summary of Table 6. The procedure:
An aqueous solution containing 10 mM of glucose, 6-O-α-glucosylglucose (isomaltose), 6^2-O-α-glucosylmaltose (panose), 6^3-O-α-glucosylmaltotriose (isomaltosylmaltose), 6^4-O-αglucosylmaltotetraose, or 6^5-O-α-glucosylmaltopentaose was prepared as substrate solution. To each of the above substrate solutions was added two units/mM-substrate of the purified α-isomaltosyl-transferring enzyme specimen obtained in Experiment 3-2 and incubated at 30° C. and at pH 6.0 for 12 hours. After deionizing by conventional method, the resulting reaction solutions were measured for saccharide composition on HPLC, disclosed in Experiment 2-1.

The next test relates to Bacillus globisporus C11. The test can be described thus: Utilization of carbon source and acid formation, strain C11. To be noted: carbon source. On the set-up: key: The symbol “+” means yes or positive. Format: cell-based. On the procedure:
(§1) Physiological Properties> • (1) VP-test: Negative • (2) Indole formation: Negative • (3) Gas formation from nitric acid: Positive • (4) Hydrolysis of starch: Positive • (5) Formation of pigment: Forming no soluble pigment • (6) Urease: Positive • (7) Oxidase: Positive • (8) Catalase: Positive • (9) Growth conditions: Growing at a pH of 5.5–9.0 and a temperature of 10–35° C. • (10) Oxygen requirement: Aerobic • (11) Utilization of carbon source and acid formation

The next test has as its system Bacillus globisporus N75. Briefly: Utilization of carbon source and acid formation, strain N75. The test is classed as cell-based. The arrangement: key: The symbol “+” means yes or positive. To be noted: carbon source. The procedure: as §1
[3] abbreviates: C11 enzyme 2 units/mM-substrate, 10 mM substrate, 30° C., pH 6.0, 12 hours.
The mark [4] stands for this setting: N75 enzyme 2 units/mM-substrate, 10 mM substrate, 30° C., pH 6.0, 12 hours.

The structures appear in SMILES notation.

Take `OC[C@H]1O[C@H](OC[C@H]2O[C@H](O[C@H]3[C@H](O)[C@@H](O)C(O)O[C@@H]3CO)[C@H](O)[C@@H](O)[C@@H]2O)[C@H](O)[C@@H](O)[C@@H]1O` (stereo partly drawn) [6^2-O-α-Glucosylmaltose, 6^2-O-α-glucosylmaltose]: in test [1] (setting [3]), the “Content of Cyclotetrasaccharide in the reaction mixture” value (shortened to “Content of Cyclotetrasaccharide”) is 43.5%, the “Content of Glucose in the reaction mixture” value came to 32.2%, the “Content of Isomaltose in the reaction mixture” value (“Content of Isomaltose” below) amounted to 2.1% and the “Content of Isomaltosylpanose in the reaction mixture” value was 4.8%. Moreover, in test [1] (setting [3]), the “Content of Isomaltosypanoside in the reaction mixture” value came out at 1.8%, the “Content of others in the reaction mixture” value (“Content of others” below) is listed as 11.0% and the “Content of the substrate itself (remaining) in the reaction mixture” value (“Content … (remaining) in the reaction mixture” below) was 4.6%. Moreover, in test [1] (C11 enzyme), the “yield of cyclotetrasaccharide in dry basis from the substrate” value (shortened to “yield of cyclotetrasaccharide”) was determined as 43.5%. In test [2] (setting [4]), the “Content of Cyclotetrasaccharide” value is listed as 43.2%, the “Content of Glucose in the reaction mixture” value was 31.8%, the “Content of Isomaltose” value worked out at 2.0% and the “Content of Isomaltosylpanose in the reaction mixture” value worked out at 6.5%. Moreover, in test [2] (setting [4]), the “Content of Isomaltosypanoside in the reaction mixture” value worked out at 2.4%, the “Content of others” value was determined as 9.7% and the “Content … (remaining) in the reaction mixture” value stood at 4.4%. In test [2] (N75 enzyme), the “yield of cyclotetrasaccharide” value is given as 43.2%.
`OCC(O)CO` [Glycerol]: in the test with Bacillus globisporus C11, the Acid formation entry is recorded as “+” and the Utilization result is “+”. In addition, in the test on Bacillus globisporus N75, the Acid formation result is listed as “+” and the Utilization result is reported as “+”.
`OC[C@H]1O[C@@](CO)(O[C@H]2O[C@H](CO)[C@@H](O)[C@H](O)[C@H]2O)[C@@H](O)[C@@H]1O` [Sucrose]: the Acid formation result in the test on Bacillus globisporus C11 and in the test on Bacillus globisporus N75 was “+” each time. Besides, the Utilization result in the test on Bacillus globisporus C11 and in the test with Bacillus globisporus N75 was “+” each time.
In the case of `OC[C@H]1O[C@H](OC[C@H]2O[C@H](O[C@H]3[C@H](O)[C@@H](O)[C@@H](O[C@H]4[C@H](O)[C@@H](O)C(O)O[C@@H]4CO)O[C@@H]3CO)[C@H](O)[C@@H](O)[C@@H]2O)[C@H](O)[C@@H](O)[C@@H]1O` (stereo partly drawn) [6^3-O-α-Glucosylmaltotriose, 6^3-O-α-glucosylmaltotriose], in test [1] (setting [3]), the “Content of Cyclotetrasaccharide” value was found to be 30.8%, the “Content of Isomaltose” value is recorded as 2.0%, the “Content of Maltose in the reaction mixture” value was 50.6% and the “Content of others” value is 12.4%. Besides, the “Content … (remaining) in the reaction mixture” value in test [1] (setting [3]) was 4.2%. Also, the “yield of cyclotetrasaccharide” value in test [1] (C11 enzyme) is 30.8%. Further, in test [2] (setting [4]), the “Content of Cyclotetrasaccharide” value was 30.9%, the “Content of Isomaltose” value is recorded as 1.9%, the “Content of Maltose in the reaction mixture” value is given as 50.3% and the “Content of others” value amounted to 12.4%. In addition, the “Content … (remaining) in the reaction mixture” value in test [2] (setting [4]) is on record as 4.5%. For the same molecule, in test [2] (N75 enzyme), the “yield of cyclotetrasaccharide” value is 30.9%.
For the molecule `OC[C@H]1O[C@H](OC[C@H]2O[C@H](O[C@H]3[C@H](O)[C@@H](O)[C@@H](O[C@H]4[C@H](O)[C@@H](O)[C@@H](O[C@H]5[C@H](O)[C@@H](O)[C@@H](O[C@H]6[C@H](O)[C@@H](O)C(O)O[C@@H]6CO)O[C@@H]5CO)O[C@@H]4CO)O[C@@H]3CO)[C@H](O)[C@@H](O)[C@@H]2O)[C@H](O)[C@@H](O)[C@@H]1O` (stereo partly drawn) [6^5-O-α-Glucosylmaltopentaose, 6^5-O-α-glucosylmaltopentaose], in test [1] (setting [3]), the “Content of Cyclotetrasaccharide” value is reported as 18.2%, the “Content of Isomaltose” value worked out at 1.6%, the “Content of Maltotetraose in the reaction mixture” value is given as 66.5% and the “Content of others” value is given as 9.4%. In test [1] (setting [3]), the “Content … (remaining) in the reaction mixture” value was 4.3%. Besides, in test [1] (C11 enzyme), the “yield of cyclotetrasaccharide” value is given as 18.2%. For the same molecule, in test [2] (setting [4]), the “Content of Cyclotetrasaccharide” value turned out to be 18.7%, the “Content of Isomaltose” value amounted to 1.4%, the “Content of Maltotetraose in the reaction mixture” value amounted to 66.6% and the “Content of others” value is 9.1%. The “Content … (remaining) in the reaction mixture” value in test [2] (setting [4]) was 4.2%. Moreover, the “yield of cyclotetrasaccharide” value in test [2] (N75 enzyme) is reported as 18.7%.
As to `O=C[C@H](O)[C@@H](O)[C@H](O)[C@H](O)CO[C@H]1O[C@H](CO)[C@@H](O)[C@H](O)[C@H]1O` [6-O-α-Glucosylglucose, 6-O-α-glucosylglucose], the “product formation from the substrate” value in test [1] (C11 enzyme) and in test [2] (N75 enzyme) was “No product was detected” each time. In addition, the “Content … (remaining) in the reaction mixture” value in test [1] (setting [3]) and in test [2] (setting [4]) was 100% in each case.
Turning to `OC[C@H]1O[C@@H](O[C@H]2[C@H](O)[C@@H](O)C(O)O[C@@H]2CO)[C@H](O)[C@@H](O)[C@H]1O` (some centres unmarked) [Lactose], the Acid formation entry in the test on Bacillus globisporus C11 and in the test on Bacillus globisporus N75 was “+” in each case. Further, the Utilization entry in the test with Bacillus globisporus C11 and in the test on Bacillus globisporus N75 was “+” in each case.
Take `OC[C@H]1O[C@H](OC[C@H]2O[C@H](O[C@H]3[C@H](O)[C@@H](O)[C@@H](O[C@H]4[C@H](O)[C@@H](O)[C@@H](O[C@H]5[C@H](O)[C@@H](O)C(O)O[C@@H]5CO)O[C@@H]4CO)O[C@@H]3CO)[C@H](O)[C@@H](O)[C@@H]2O)[C@H](O)[C@@H](O)[C@@H]1O` (stereo partly drawn) [6^4-O-α-Glucosylmaltotetraose, 6^4-O-α-glucosylmaltotetraose]: in test [1] (setting [3]), the “Content of Cyclotetrasaccharide” value worked out at 25.6%, the “Content of Isomaltose” value was found to be 1.9%, the “Content of Maltotriose in the reaction mixture” value was found to be 60.7% and the “Content of others” value amounted to 8.4%. Besides, in test [1] (setting [3]), the “Content … (remaining) in the reaction mixture” value was 3.4%. Also, the “yield of cyclotetrasaccharide” value in test [1] (C11 enzyme) was determined as 25.6%. Also, in test [2] (setting [4]), the “Content of Cyclotetrasaccharide” value was found to be 25.8%, the “Content of Isomaltose” value is recorded as 1.5%, the “Content of Maltotriose in the reaction mixture” value stood at 60.9% and the “Content of others” value is listed as 8.6%. Also, in test [2] (setting [4]), the “Content … (remaining) in the reaction mixture” value worked out at 3.2%. Besides, the “yield of cyclotetrasaccharide” value in test [2] (N75 enzyme) turned out to be 25.8%.
